Our source for the solubility and inhibition values is ChEMBL document CHEMBL2321874, “Small-molecular, non-peptide, non-ATP-competitive polo-like kinase 1 (Plk1) inhibitors with a terphenyl skeleton” (Bioorg Med Chem, 2013).

Values after ≈ are worked out from the molar mass of the structure shown.

The nature of series [1]: Solubility of the compound. The class given is physicochemical.
In series [2] the target is Serine/threonine-protein kinase PLK1 (Homo sapiens) (UniProt P53350). The series can be described thus: Inhibition of human recombinant N-terminal GST-tagged Plk1 at 250 uM.
Serine/threonine-protein kinase PLK1 (Homo sapiens), sequence (P53350 whole entry): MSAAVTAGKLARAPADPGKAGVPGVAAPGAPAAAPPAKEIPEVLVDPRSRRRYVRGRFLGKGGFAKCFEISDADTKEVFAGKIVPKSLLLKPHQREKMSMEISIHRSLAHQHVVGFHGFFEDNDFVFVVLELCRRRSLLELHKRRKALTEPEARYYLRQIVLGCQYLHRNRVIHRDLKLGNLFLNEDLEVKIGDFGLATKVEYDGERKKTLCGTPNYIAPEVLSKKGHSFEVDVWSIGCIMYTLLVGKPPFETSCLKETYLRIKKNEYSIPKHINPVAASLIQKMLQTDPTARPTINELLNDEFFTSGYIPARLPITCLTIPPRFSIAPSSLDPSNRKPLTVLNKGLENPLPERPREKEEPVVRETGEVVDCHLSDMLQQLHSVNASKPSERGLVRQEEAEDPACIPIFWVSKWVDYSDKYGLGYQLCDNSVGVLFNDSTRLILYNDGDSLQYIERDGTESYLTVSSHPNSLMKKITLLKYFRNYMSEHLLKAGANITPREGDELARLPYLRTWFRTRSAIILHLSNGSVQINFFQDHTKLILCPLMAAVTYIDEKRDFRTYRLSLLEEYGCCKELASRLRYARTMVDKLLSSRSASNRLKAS

As to `Cc1cc(-c2ccc(C#N)cc2)c(OCCO)c(-c2ccc(C#N)cc2)c1`, in series [1], the solubility came out at 100 µM (≈ 35.4 µg/mL). For `CNC(=O)Cc1ccc(-c2cc(C)cc(-c3ccc(CC(=O)NC)cc3)c2OCCO)cc1`, in series [2], the inhibition was found to be 0%.
